Assay results taken from patent US6432956B1, “Method for treatment of sleep apneas” (priority 1990, dated 2002).

What was measured:
respiration in cats = details: Garner, et al. 1989; cited from earlier work
[1] = tested on: respiration in normal male volunteers; details: Rapoport, et al. 1988; cited from earlier work
[2] = tested on: patients suffering from obstructive sleep apnea; experiment: Clinical experience: single dose of buspirone at bedtime in patients with obstructive sleep apnea; format: in vivo, human (patients)
Excerpt: The effectiveness of azapirone treatment of patients suffering from sleep apneas can be exemplified by clinical experience with buspirone. […] One of the most consistent physiological measurements of improvement was a 10 to 20% increase in blood oxygen levels, an indication of improved respiratory efficiency.

[3] = single dose at bedtime, patients suffering from obstructive sleep apnea

Question: Which effect on respiration (respiration in cats) does the source give for O=C1CC2(CCCC2)CC(=O)N1CCCCN1CCN(c2ncccn2)CC1 [buspirone] here?
Answer: stimulatory effect on respiration

Question: And the effect on respiration [1]?
Answer: stimulatory effect on respiration

Question: And the “effectiveness in treating sleep apneas” value ([2]; patients suffering from sleep apneas)?
Answer: effective

Question: And the “episodes of sleep disturbance” value [2, 3]?
Answer: marked reduction in episodes of sleep disturbance

Question: And the sleep efficiency [2, 3]?
Answer: increased sleep efficiency

Question: And the total sleep time [2, 3]?
Answer: gain in total sleep time
